Like-named read-outs stand apart in the source and are kept apart here.

Consider 44 compounds from patent US4699924A, “Skin treatment composition” (priority 1983, dated 1987).

One data set can be described thus: physchem. To be noted: octanol/water.
For data set [1] the following is noted: as recorded in Handbook of Chemistry & Physics, 57th Edition 1976-77; cited from earlier work.
A short description of data set [2]: Cloud point temperature of a 0.025M aqueous solution of polyoxyethylene(8)nonylphenyl ether with 5% by weight additive. The format is physicochemical. The note with it: for Effect on the cloud point temperature of nonionic surfactants: screening of non-electrolytes, in words. The method, then: An activity enhancer is accordingly defined as a non-electrolyte which is capable, at a concentration of 5% by weight of increasing the cloud point temperature of a 0.025M aqueous solution of polyoxyethylene(8)nonylphenyl ether by at least 10° C. Preferably the activity enhancer is one which is capable of increasing the cloud point temperature by at least 15° C., most preferably by at least 20° C.
It should be explained that the "cloud point" is a measure of the inverse solubility of a nonionic surfactant with temperature and can be determined by heating a standard clear aqueous solution of the nonionic surfactant until the solution becomes visibly cloudy and then measuring the temperature.
The cloud point temperature can conveniently be determined automatically using the equipment and method described by Baum et al in Mat. Res. Std. 4 26 (1964).
Examples of suitable compounds functioning as activity enhancers, together with the respective elevated cloud point temperature obtained in each case when using the standard test defined hereinbefore are listed below in Table 1.

The test system of data set [3] is guinea pig foot pad stratum corneum. As to the kind of experiment: Increase in extensibility of guinea pig foot pad stratum corneum. Set-up: Increase in stratum corneum extensibility: unit not given here. To be noted: for Increase in stratum corneum extensibility: 0.2 M 2-hydroxyoctanoic acid + additive at 5% w/w, 3 hours at 20° C., relative humidity 65%. The method, then: The ability of an additive to enhance the delivery to skin of 2-hydroxyoctanoic acid was measured in terms of the increase in extensibility of guinea pig foot pad stratum corneum following contact with each solution.
In this experiment, pieces of guinea pig foot pad stratum corneum, equilibrated at a relative humidity of 65%, were immersed in each solution for 3 hours at 20° C., and then removed, blotted dry and re-equilibrated at the same relative humidity. The extensibility of each piece of guinea pig foot pad stratum corneum was measured before and after this treatment in an extensiometer according to the method described in European Pat. No. 7785.

Data set [4] in a line: Dielectric constant of oils measured in a liquid state. Format: physicochemical. From the text: The product can also optionally comprise an oil, fat or wax, herein referred to as "oil" having a dielectric constant of not greater than 3.0.
Examples of preferred "oils", when employed, together with their dielectric constants measured when they are in a liquid state are given below: […]

For data set [5], the system named is guinea pig stratum corneum. In words: Delivery of C14 labelled phenol to guinea pig stratum corneum. The note with it: in words.
Description: The phenol used in the preparation of each emulsion was C^14 labelled phenol.
Pieces of guinea pig stratum corneum were immersed in each of the above emulsions for 20 hours, after which they were removed, blotted dry and the amount of phenol retained by the corneum was measured by a radio tracer technique using a standard methodology.
Where [6] appears, read: Table 1, activity enhancer 5% by weight, 0.025 M polyoxyethylene(8)nonylphenyl ether.
[7] abbreviates: Table 1, activity enhancer 5% by weight, control 33.5 °C., in °C.
[8] abbreviates: table of extensibility results, additive at 5% w/w, in °C.
The mark [9] stands for this setting: Table 2, compound which is not an activity enhancer, 5% by weight.
[10] abbreviates: Table 2, compound which is not an activity enhancer, 5% by weight, control 33.5 °C.

A word on the logP: it is the decadic logarithm of the partition coefficient of the neutral form, usually between octanol and water. As to `O=Cc1ccccc1O` [O--hydroxybenzaldehyde], the logP in “physchem” was found to be 1.7.

With `CCCCCCCCCC` [n-decane], in data set [1], the Dielectric constant is reported as 1.99.

With `COc1cc(NS(=O)(=O)c2ccc(N)cc2)ncn1` [sulphamonomethoxine, reference compound], the logP in the data set “physchem” was found to be 0.85.

For `COc1ccc2c3c1O[C@H]1[C@@H](O)C=C[C@H]4[C@@H](C2)N(C)CC[C@@]341` [codeine, reference compound], the logP in the data set “physchem” was found to be 1.01.

With `CC(O)C(=O)O` (stereo not shown) [2-hydroxypropionic acid], in data set [2] (setting [6]), the Cloud point temperature stood at 45.0 °C. In addition, the “Elevation of cloud point temperature” value in data set [2] (setting [7]) and in data set [2] (setting [8]) was 11.5 throughout. The “Increase in stratum corneum extensibility” value in data set [3] turned out to be 17.1.

The compound `Nc1ccc(S(=O)(=O)Nc2ccnn2-c2ccccc2)cc1` [sulphaphenzole, reference compound] came in with a logP in the data set “physchem” of 1.57.

As for `CC(O)CO` (stereo not shown) [Propan-1,2-diol], the Cloud point temperature in data set [2] (setting [9]) came to 39.0 °C. Moreover, the “Elevation of cloud point temperature” value in data set [2] (setting [10]) stood at 5.5 °C; in data set [2] (setting [8]) it was 5.5. For the same compound, the “Increase in stratum corneum extensibility” value in data set [3] was 12.6.

In data set [4], `CCCCCCCCO` [Octanol] showed a Dielectric constant of 10.3.

On to `CN1C(=O)NC(=O)C(C)(C)C1=O` [5,5-dimethyl, 1-methyl barbituric acid], for which, in the data set “physchem”, the logP worked out at 1.09.

Regarding `CC(O)CC(C)O` (stereo not shown) [Pentan-2,4-diol], the Cloud point temperature in data set [2] (setting [6]) turned out to be 48.0 °C. Further, the “Elevation of cloud point temperature” value in data set [2] (setting [7]) and in data set [2] (setting [8]) was 14.5 each time. For the same compound, the “Increase in stratum corneum extensibility” value in data set [3] was 17.0.

Take `CC(O)COCC(C)O` (stereo not shown) [Di(2-hydroxypropyl) ether]: the Cloud point temperature in data set [2] (setting [6]) came out at 44.8 °C. Moreover, the “Elevation of cloud point temperature” value in data set [2] (setting [7]) and in data set [2] (setting [8]) was 11.3 in each case. For the same compound, the “Increase in stratum corneum extensibility” value in data set [3] came to 21.6.

`C[S+](C)[O-]` [Dimethyl sulphoxide]: the Cloud point temperature in data set [2] (setting [9]) was found to be 33.9 °C. Also, the results for the “Elevation of cloud point temperature” value in data set [2] (setting [10]) and in data set [2] (setting [8]) were 0.4 °C and -0.5, respectively. The “Increase in stratum corneum extensibility” value in data set [3] is 5.

On to `Nc1ncnc2c1ncn2[C@@H]1O[C@H](COP(=O)(O)OP(=O)(O)O)[C@@H](O)[C@H]1O` [adenosine diphosphate], for which the logP in “physchem” worked out at 0.89.

Take `CCCCCCCCCCCCCCCCCC` [n-octadecane]: the Dielectric constant in data set [4] is listed as below 3.0.

`CCCCCCC(=O)C(=O)O` [2-ketooctanoic acid]: the logP in the data set “physchem” is 3.2.

Take `CCCCC/C=C\C/C=C\CCCCCCCC(=O)O` [linoleic acid]: in data set [1], the Dielectric constant is listed as 2.71.

For `OCC(O)CO` [Propan-1,2,3-triol], the Cloud point temperature in data set [2] (setting [9]) was 32.2 °C. Further, the results for the “Elevation of cloud point temperature” value in data set [2] (setting [10]) and in data set [2] (setting [8]) were -1.3 °C and -1.3, respectively. In data set [2], the “Effect on the cloud point temperature of nonionic surfactants” value is “reduce the cloud point temperature”. In addition, the “Increase in stratum corneum extensibility” value in data set [3] was determined as 5.

`Oc1ccccc1` [phenol]: in data set [5], the “Amount of phenol delivered to the skin relative to ordinary emulsion (Control)” value is “enhanced when a gel phase is present”.

`CC(=O)Nc1ccccc1C(=O)O` [N--acetyl O--aminobenzoic acid]: the Log partition coefficient (octanol/water at 20° C.) is reported as 1.88.

Compound `O=C1NS(=O)(=O)c2ccccc21` [saccharin] gave a Log partition coefficient (octanol/water) of 0.91.

Take `CCCCCCCCCCCCCCCC` [n-hexadecane]: in data set [4], the Dielectric constant is recorded as below 3.0.

Regarding `CC(N)Cc1ccccc1` (stereo not shown) [amphetamine, reference compound], the Log partition coefficient (octanol/water at 20° C.) came out at 1.63.

Turning to `O=C1CCCN1` [2-pyrrolidone], the “Elevation of cloud point temperature” value in data set [2] (setting [8]) came out at 15.5. Besides, the “Increase in stratum corneum extensibility” value in data set [3] worked out at 28.0.

Take `OCCO` [Ethan-1,2-diol]: the Cloud point temperature in data set [2] (setting [9]) was 33.0 °C. Besides, the “Elevation of cloud point temperature” value is -0.5 °C in data set [2] (setting [10]) and -0.5 in data set [2] (setting [8]). For the same compound, in data set [3], the “Increase in stratum corneum extensibility” value is 5.

In the case of `CCCCCCC(O)C(=O)O` (stereo not shown) [2-hydroxyoctanoic acid], the logP in the data set “physchem” amounted to 2.24. The “Increase in stratum corneum extensibility” value in data set [3] worked out at 5. In addition, the “Increase in stratum corneum extensibility / delivery to skin, in words” value in data set [3] (conclusion in words) is recorded as “greatly enhanced”.

In turn, `c1ccc2[nH]cnc2c1` [benzimidazole] had a Log partition coefficient (octanol/water at 20° C.) of 1.34.

Compound `Oc1ccc(O)cc1` [p-dihyroxybenzene] gave a Log partition coefficient (octanol/water) of 0.59.

In the case of `CCOC(=O)c1cccnc1` [ethyl nicotinate], the Log partition coefficient (octanol/water at 20° C.) turned out to be 1.32.

As to “4-methyl-6-(2,4,6-trimethyl-pentyl)-2-(1H)--pyridone”, under “octanol/water”, the Log partition coefficient was found to be 1.28.

With `CCCCCCCCCCCC` [n-dodecane], the Dielectric constant in data set [1] is 2.02.

For `Nc1ccc(C(=O)O)cc1` [p-aminobenzoic acid, reference compound], the Log partition coefficient (octanol/water) stood at 0.68.

The compound `NS(=O)(=O)c1cccc([N+](=O)[O-])c1` [m-nitrobezene sulphonamide] returned a Log partition coefficient (octanol/water at 20° C.) of 0.55.

Regarding `CCCCCCCC/C=C\CCCCCCCC(=O)O` [oleic acid], the Dielectric constant in data set [1] is listed as 2.46.

As for `Oc1ccccc1O` [o-dihydroxybenzene], the Log partition coefficient (octanol/water at 20° C.) came to 0.80.

With `CCCCO` [Butan-1-ol], in data set [2] (setting [9]), the Cloud point temperature is 36.3 °C. Moreover, the “Elevation of cloud point temperature” value in data set [2] (setting [10]) worked out at 2.8 °C; in data set [2] (setting [8]), 2.8. In addition, the “Effect on the cloud point temperature of nonionic surfactants” value in data set [2] was “reduce the cloud point temperature”. Moreover, in data set [3], the “Increase in stratum corneum extensibility” value was found to be 13.2.

`O=C(O)c1ccccc1O` [salicylic acid, reference compound] returned a Log partition coefficient (octanol/water at 20° C.) of 2.26.

`CC1(C)S[C@@H]2[C@H](NC(=O)Cc3ccccc3)C(=O)N2[C@H]1C(=O)O` [benzyl pencillin, reference compound] returned a Log partition coefficient (octanol/water) of 1.83.

For `CCCCCCCCCCCCCC` [n-tetradecane], the Dielectric constant in data set [4] is below 3.0.

Turning to `Nc1ncnc2c1ncn2[C@@H]1O[C@H](COP(=O)(O)OP(=O)(O)OP(=O)(O)O)[C@@H](O)[C@H]1O` [adenosine triphosphate], in “physchem”, the logP is 1.64.

The compound `COC1=CC=C2[C@H]3Cc4ccc(OC)c5c4[C@@]2(CCN3C)[C@H]1O5` [thebaine] came in with a log partition coefficient (logP) in “physchem” of 1.91.

`Cc1cccc(S(N)(=O)=O)c1` [m-methylbenzene sulphonamide] displayed a Log partition coefficient (octanol/water at 20° C.) of 0.85.

The compound `O=C(O)c1cccc(O)c1` [m-hydroxybenzoic] came in with a Log partition coefficient (octanol/water) of 1.50.

Regarding `CCC1OC(=O)C(C)C(OC2CC(C)(OC)C(O)C(C)O2)C(C)C(OC2OC(C)C(O)C(N(C)C)C2O)C(C)(O)CC(C)C(=O)C(C)C(O)C1(C)O` (stereo not shown) [4'-hydroxyerythromycin], for the setting “octanol/water”, the Log partition coefficient is on record as 1.44.

Turning to `CC(O)CCC(C)O` (stereo not shown) [Hexan-2,5-diol], the Cloud point temperature in data set [2] (setting [6]) amounted to 52.0 °C. Further, the “Elevation of cloud point temperature” value in data set [2] (setting [7]) and in data set [2] (setting [8]) was 18.5 throughout. Besides, the “Increase in stratum corneum extensibility” value in data set [3] is given as 37.0.
